# Structures can show the parent of a compound that is named as a salt. Where two headings read alike, the source gives them in different places.
# Tested on: cholesterol biosynthesis in HepG2 cells
# Assay: Metabolic labeling of HepG2 cells with [3H]acetate; radio-HPLC sterol profile (inhibition of cholesterol biosynthesis)
# Type: cell-based, human
# Conditions: for activity at 10 µM: Homo sapiens, 24 h, Table I, sterol level normalized to normal medium (1.00), mean of 4 experiments; for activity at 10 µM / FF-MAS / cholesterol / desmosterol / lanosterol / lathosterol / zymosterol+7-dehydrocholesterol: 10 μM compound; for activity at 10 µM / FF-MAS / cholesterol / desmosterol / lanosterol / lathosterol / zymosterol+7-dehydrocholesterol / all sterol levels (in words): HepG2; for FF-MAS / cholesterol / desmosterol / lanosterol / lathosterol / zymosterol+7-dehydrocholesterol: Table II (arranged by sterol profile), normalized to normal medium (1.00); for all sterol levels (in words): relative to normal medium (unity)
# Protocol: In accordance with the aims of the invention, the effect of the novel compounds on inhibition of cholesterol biosynthesis is assessed. An ex vivo method of metabolic labeling of immortal human hepatocytes is employed. The radioactively labeled early precursor of cholesterol [3H]acetate is added to cells with or without addition of an active new compound.
# An ex vivo method of metabolic labeling of immortal human hepatocytes is employed. The radioactively labeled early precursor of cholesterol [3H]acetate is added to cells with or without addition of an active compound.
# Cell culture incubation with potential inhibitors of cholesterol biosynthesis and statins Human hepatoma cell line (HepG2-ATCC No. HB-8065) is split in the recommended ratio (1:2-3) into 75 cm^2 cell flasks using two flasks per experimental condition. Cells are incubated at 37° C. with 5% CO2 in Dulbeco's modified Eagle medium (DMEM high (Sigma)) containing 5% calf serum (Sigma) and 1% L-glutamine (Sigma). After 24-hours-culturing in the growth medium, the medium is replaced with the one supplemented with 10 μM concentration of a LK compound, potential inhibitor of cholesterol biosynthesis. 10 μM solution of atorvastatin, inhibitor of HMG-CoA reductase, serves as a positive control.
# After 24 hours the growth medium is changed and [^3H]acetate (NEN™ Life Science Products) added in a concentration of 40 μCi per ml of the medium (400 μCi per flask). After 4 hours cells are harvested using 2 ml of trypsin (Sigma) and the cell pellet is resuspended in 1 ml of distilled water. Cells are homogenized using the freeze and thaw method. From cell homogenate sterols are extracted and protein concentration determined using the Bio-Rad reagent.
# Homogenates are transferred into 4 ml glass vial and sterols are extracted in 3 ml of extraction solution (75% n-heptane: 25% isopropanol (vol./vol.)) with ergosterol as an internal standard. For better extraction 100 μl of 0.3M NaH2PO4 (pH=1.0) is added. Closed vials are vigorously shaken (1800 rpm) for 2 hours. After extraction procedure vials are centrifuged (2000 g, 10 min) and the organic phase is transferred to fresh conical glass tubes. Extraction procedure is repeated using 1 ml of extraction solution for 15 min. Organic phases are pooled. Primary extracts are dried in vacuum centrifuge, redissolved in 3 ml of n-heptane, and incubated for 10 min at room temperature with mild shaking. After centrifugation (10 min, 2000 g) extracts are transferred into fresh glass tubes and stored in dark and cold.
# The organic phase is dried, reconstituted in mobile phase for reversed phase HPLC separation and loaded onto a-HPLC column, Prism-RPN, 5 μm, 250×4,6 mm running in 100% acetonitrile at 1.00 ml/min at 40° C. temperature. Scintillation liquid is added after UV detection at 30 ml/h, at room temperature, to evaluate tritium labeled sterols on a radio detector.
# Sterols are determined by comparing the eluted peaks with runs of commercial standards of lanosterol, ergosterol, desmosterol, zymosterol, 7-dehydrocholesterol, lathosterol and cholesterol or laboratory standards (FF-MAS-4,4-Dimethylcholesta-8(9),14,24-triene-3β-ol- and T-MAS-4,4-Dimethylcholesta8(9),24,diene-3,6-ol, Laboratory of Reproductive Biology, The Juliane Marie Center for Children, Women and Reproduction, University Hospital of Copenhagen, DK-2100 Copenhagen, Denmark). Results were normalized on ergosterol quantity and protein concentration. Results are presented as a mean from 4 separated experiments.
# The influence of a 10 μM solution of novel LK-substances on cholesterol biosynthesis in the assay on HepG2 cells is presented in Table I. Compounds are arranged according to the building blocks, three of them are 2-pyridineethanols, 2-pyridineethylpiperazines and pyridinemethylpiperazines.
# Normal medium pertains to cell cultures without a compound of the invention. Its sterol levels were used for normalization. 10 μM solution of atorvastatin serves as a positive control.
# [1] = read-out: zymosterol+7-dehydrocholesterol
SMILES,activity at 10 µM (read-out: FF-MAS) [%],activity at 10 µM (read-out: cholesterol) [%],activity at 10 µM (read-out: desmosterol) [%],activity at 10 µM (read-out: lanosterol) [%],activity at 10 µM (read-out: lathosterol) [%],activity at 10 µM [1] [%],FF-MAS,cholesterol,desmosterol,lanosterol,lathosterol,zymosterol+7-dehydrocholesterol,all sterol levels (in words) (10 μM),"de novo cholesterol biosynthesis (in words) (10 μM, HepG2, radio-HPLC chromatograms)"
"OC(CN1CCN(CCc2ccccc2)CC1)c1ccncc1 (centres unmarked) [LK-9110B, 2-(4-Phenethylpiperazine-1-yl)-1-(pyridine-4-yl)ethanol]",374,0,17,96,78,137,3.74,0.00,0.17,0.96,0.78,1.37,,
"FC(F)(F)c1cnc(N2CCCN(CCc3ccccc3)CC2)c(Cl)c1 [LK-9115, 1-(3-Chloro-5-(trifluoromethyl)pyridine-2-yl)-4-phenethyl-1,4-diazepane trihydrobromide]",442,0,0,84,21,91,4.42,0.00,0.00,0.84,0.21,0.91,,
"c1ccc(CCN2CCN(CCc3ccncc3)CC2)cc1 [LK-9118B, 1-Phenethyl-4-(2-(pyridine-4-yl)ethyl)piperazine]",350,0,47,146,23,90,3.50,0.00,0.47,1.46,0.23,0.90,,
"Fc1ccc(CCN2CCN(CCc3ccncc3)CC2)cc1F [LK-9131, 1-(3,4-di-Fluorophenethyl)-4-(2-(pyridin-4-yl)ethyl)piperazine trihydrobromide]",72,0,1,69,5,9,0.72,0.00,0.01,0.69,0.05,0.09,reduce all sterol levels below unity,
"Clc1ccc(CCN2CCN(CCc3ccncc3)CC2)cc1Cl [LK-9135, 1-(3,4-Dichlorophenethyl)-4-(2-(pyridin-4-yl)ethyl)piperazine trihydrobromide]",27,0,0,43,0,2,0.27,0.00,0.00,0.43,0.00,0.02,reduce all sterol levels below unity,
"Clc1ccc(CCN2CCN(CCc3ccccn3)CC2)cc1Cl [LK-9137, 1-(3,4-Dichlorophenethyl)-4-(2-(pyridin-2-yl)ethyl)piperazine trihydrobromide]",142,6,22,63,60,141,1.42,0.06,0.22,0.63,0.60,1.41,,
"Fc1ccc(CCN2CCN(CCc3ccccn3)CC2)cc1F [LK-9138, 1-(3,4-Difluorophenethyl)-4-(2-(pyridin-2-yl)ethyl)piperazine trihydrobromide]",70,1,7,25,8,21,0.70,0.01,0.07,0.25,0.08,0.21,reduce all sterol levels below unity,
"Cc1ccc(C(O)CN2CCN(CCc3ccccc3)CC2)cn1 (centres unmarked) [LK-9139, 2-(4-Phenethylpiperazine-1-yl)-1-(6-methylpyridin-3-yl)ethanol trihydrobromide]",119,1,14,38,15,38,1.19,0.01,0.14,0.38,0.15,0.38,,
"c1ccc(CCN2CCN(CCCc3cccnc3)CC2)cc1 [LK-9140, 1-Phenethyl-4-(3-(pyridine-3-yl)propyl)piperazine trihydrobromide]",72,0,1,24,3,15,0.72,0.00,0.01,0.24,0.03,0.15,reduce all sterol levels below unity,
"OC(CN1CCN(c2ccc(F)cc2)CC1)c1cccnc1 (centres unmarked) [LK-9144, 2-(4-(4-Fluorophenyl)piperazine-1-yl)-1-(pyridine-3-yl)ethanol trihydrobromide]",99,9,5,88,56,150,0.99,0.09,0.05,0.88,0.56,1.50,,
"OC(CN1CCN(Cc2ccc(F)cc2)CC1)c1cccnc1 (centres unmarked) [LK-9148, 2-(4-(4-Fluorobenzyl)piperazine-1-yl)-1-(pyridine-3-yl)ethanol trihydrobromide]",125,14,38,80,65,144,1.25,0.14,0.38,0.80,0.65,1.44,,
"CC(C)c1c(C(=O)Nc2ccccc2)c(-c2ccccc2)c(-c2ccc(F)cc2)n1CC[C@@H](O)C[C@@H](O)CC(=O)O [atorvastatin, reference compound]",0,0,0,0,0,0,0.00,0.00,0.00,0.00,0.00,0.00,,complete suppression of cholesterol biosynthesis as well as cholesterol precursors
